From US20120100188A1, “SOLID STATE FORMS OF PALIPERIDONE SALTS AND PROCESS FOR THE PREPARATION THEREOF” (Actavis Group PTC ehf, priority 2009, published 2012)

Columns and labels:
Format in all cases: physicochemical
[1] = Stability of the solid state form (as stated, no test data); settings: room temperature, enhanced temperature, relative high humidities, aqueous media
Excerpt: In one embodiment, the process disclosed herein provides stable solid state forms of paliperidone salts. The term “stable solid state form” refers to stability of the solid state form under the standard temperature and humidity conditions of testing of pharmaceutical products, wherein the stability is indicated by preservation of the original polymorphic form.

[2] = Solubility test of paliperidone and its salts in methanol (100 mg of sample); settings: 100 mg of sample used
Protocol: (§1) The solubility data of paliperidone and solid state forms of paliperidone salts is furnished in the below table. The 100 mg of sample was used for solubility test.

[3] = Solubility test of paliperidone and its salts in water (100 mg of sample); settings: 100 mg of sample used
Protocol: as §1

| SMILES | Stability of solid state form [1] | Solubility Methanol [2] | Solubility Water [3] |
| --- | --- | --- | --- |
| Cc1nc2n(c(=O)c1CCN1CCC(c3noc4cc(F)ccc34)CC1)CCCC2O.O=C(O)/C=C/C(=O)O (stereo not shown) | stable at room temperature, enhanced temperature, at relative high humidities, and in aqueous media | Insoluble | – |
| Cc1nc2n(c(=O)c1CCN1CCC(c3noc4cc(F)ccc34)CC1)CCCC2O (racemic) [Paliperidone, (±)-3-[2-[4-(6-fluoro-1,2-benzisoxazol-3-yl)-1-piperidinyl]ethyl]-6,7,8,9-tetrahydro-9-hydroxy-2-methyl-4H-pyrido[1,2-a]pyrimidin-4-one] | – | Insoluble | Insoluble |
